These results are taken from patent publication EP4591884A1, “LIPID COMPOUND FOR NUCLEIC ACID DELIVERY, AND RELATED USE AND MEDICAMENT COMPRISING SAME” (Beijing Baishihekang Pharmaceutical Technology (Bsjpharma) …, priority 2022, dated 2024).

SMILES strings stand for the structures.

Holding throughout (assay): in vitro small nucleic acid delivery by lipid-nucleic acid mixture, cell uptake by flow cytometry
Common to all, as to format: cell-based, human
Holding throughout (conditions): lipid 1.25 ug/mL, fluorescently labeled PGY-ssRNA-26, final 100 nM, 9 h incubation, flow cytometry fluorescence
Background: Flow cytometry measures light scatter and fluorescence of single cells or particles in a stream.

In test [1] the test system is 293T cells. As for the experimental part:
(§1) Culture the human pancreatic acinar epithelial cancer cell line HPAC, human large cell lung cancer cell line H460, and human embryonic kidney cell line HEK293T (purchased from the Cell Resource Center, Institute of Basic Medicine, Chinese Academy of Medical Sciences) used in the experiments in a 37°C, 5%CO2 incubator. Culture the HPAC cells in DMEM/F12 medium, the H460 cells in RPMI-1640 medium, and the 293T cells in DMEM medium containing 10% fetal bovine serum and 1% antibiotics (penicillin 100 U/mL & streptomycin […]). Culture the cells to the logarithmic growth phase with a cell density of 6 × 10^5/1 mL medium/well; divide the cells into 12-well plates (1 mL medium/well), and incubate at 37°C overnight (12 h), and then conduct subsequent experiments.
(§2) Add 5 µL of nucleic acid and 95 µL of DEPC-treated water to a 2 mL glass tube, mix homogeneously, add a certain amount of lipid monomer, mix thoroughly, heat in a 90°C water bath for 15 min, and then cool naturally to obtain a mixture of nucleic acid and lipid.
(§3) 3. Detection of cell uptake of nucleic acids delivered by lipids inside cells by means of flow cytometry (CFlow) • 1) Main experimental instruments and equipment: 10 cm cell culture dishes, 12-well cell culture plates, pipettes, transfer tubes, optical microscope, flow cytometer CytoFLEX instrument (purchased from Beckman, USA) • 2) Main experimental reagents: Model establishment and transfection: artificially synthesized lipid monomers and nucleic acids as shown in the table • 3) Culture the human pancreatic acinar epithelial cancer cell line HPAC cells, human large cell lung cancer cell line H460 cells, and human embryonic kidney cell line HEK293T cells used in the experiment to the logarithmic growth phase, and then divide them into 12-well plates at a cell density of 6×10^5/mL culture medium/well; incubate the 12-well plates at 37°C overnight (12 h), and then conduct subsequent experiments. • 4) The experimental groups are as follows: • a) Blank group: refers to untreated cells, and this group serves as a blank control group. • b) Free uptake group: directly add 5 µL of fluorescently labeled nucleic acid solution (stock concentration 20 µM), and this group serves as the negative control group. • c) Lipid-nucleic acid mixture treatment group: add the mixture of lipids and fluorescently labeled nucleic acids prepared in step 2 to the cells, and mix homogeneously. The final concentration of nucleic acids is 100 nM. • 5) After incubating with cells for 9 h, wash the cells three times with PBS, resuspend the cells with PBS (self-prepared), and use a flow cytometer CytoFLEX instrument (purchased from Beckman, USA) to detect the fluorescence intensity of the cells in the sample wells.

Test [2] concerns HPAC cells. How it is done: as §1, §2, §3
Test [3] relates to H460 cells. How it is done: as §1, §2, §3

For `CCCCCCCCCCCCCCCCCCCCCCC/C=C/[C@@H](O)[C@@H](N)CO` [Sphingosine (d28:1), (2S,3R,E)-2-aminooctacos-4-ene-1,3-diol], the “Lipid delivery group (1.25 ug/mL)” value in test [1] was 86.5%; in test [2] it was 96.66%; in test [3], 84.15%.
On to `CCCCCCCCCCCCCCCCCCCCCCCCCCCCCC/C=C/[C@@H](O)[C@@H](N)CO` [Sphingosine (d35:1), (2S,3R,E)-2-aminopentatriacont-4-ene-1,3-diol], for which the “Lipid delivery group (1.25 ug/mL)” value in test [1] was 50.79%; in test [2], 53.75%; in test [3], 64.66%.
Consider `CCCCCCCCCCCCCCCCCCCCCCCC/C=C/[C@@H](O)[C@@H](N)CO` [Sphingosine (d29:1), (2S,3R,E)-2-aminononacos-4-ene-1,3-diol], for which the “Lipid delivery group (1.25 ug/mL)” value in test [1] is 32.74%; in test [2], 23.36%; in test [3], 62.37%.
Regarding `CCCCCCCCCCCCCCCCCCCCCCCCCCCC[C@@H](O)[C@@H](N)CO` [Sphingosine (d31:0), (2S,3R)-2-aminohentriacontane-1,3-diol], the “Lipid delivery group (1.25 ug/mL)” value in test [1] is 97.4%; in test [2] it was 70.5%; in test [3] it was 68.16%.
